# Read-outs that look alike come from different tables or passages of the source.
# Columns and labels:
# Xanthine oxidase (XO) [1] = target: T1, Xanthine oxidase (XO) (Bos taurus, UniProt P80457); test: XO inhibitory activity of phenolic compounds (absorbance at 292 nm); assay type: biochemical; conditions: XO 0.1 U/ml, 37°C, 15 min preincubation; mean ± SD
# T1 construct: purchased Sigma-Aldrich (Shanghai, P. R. China)
# Xanthine oxidase (XO) [2] = target: T1, Xanthine oxidase (XO); test: Determination of inhibition type (Line-weaver Burk plot); assay type: biochemical; conditions: Line-weaver Burk plot analysis toward XO
# XO = conditions: cited from earlier work; for IC50: read-out: IC50 against XO
# T1 sequence (P80457 whole entry): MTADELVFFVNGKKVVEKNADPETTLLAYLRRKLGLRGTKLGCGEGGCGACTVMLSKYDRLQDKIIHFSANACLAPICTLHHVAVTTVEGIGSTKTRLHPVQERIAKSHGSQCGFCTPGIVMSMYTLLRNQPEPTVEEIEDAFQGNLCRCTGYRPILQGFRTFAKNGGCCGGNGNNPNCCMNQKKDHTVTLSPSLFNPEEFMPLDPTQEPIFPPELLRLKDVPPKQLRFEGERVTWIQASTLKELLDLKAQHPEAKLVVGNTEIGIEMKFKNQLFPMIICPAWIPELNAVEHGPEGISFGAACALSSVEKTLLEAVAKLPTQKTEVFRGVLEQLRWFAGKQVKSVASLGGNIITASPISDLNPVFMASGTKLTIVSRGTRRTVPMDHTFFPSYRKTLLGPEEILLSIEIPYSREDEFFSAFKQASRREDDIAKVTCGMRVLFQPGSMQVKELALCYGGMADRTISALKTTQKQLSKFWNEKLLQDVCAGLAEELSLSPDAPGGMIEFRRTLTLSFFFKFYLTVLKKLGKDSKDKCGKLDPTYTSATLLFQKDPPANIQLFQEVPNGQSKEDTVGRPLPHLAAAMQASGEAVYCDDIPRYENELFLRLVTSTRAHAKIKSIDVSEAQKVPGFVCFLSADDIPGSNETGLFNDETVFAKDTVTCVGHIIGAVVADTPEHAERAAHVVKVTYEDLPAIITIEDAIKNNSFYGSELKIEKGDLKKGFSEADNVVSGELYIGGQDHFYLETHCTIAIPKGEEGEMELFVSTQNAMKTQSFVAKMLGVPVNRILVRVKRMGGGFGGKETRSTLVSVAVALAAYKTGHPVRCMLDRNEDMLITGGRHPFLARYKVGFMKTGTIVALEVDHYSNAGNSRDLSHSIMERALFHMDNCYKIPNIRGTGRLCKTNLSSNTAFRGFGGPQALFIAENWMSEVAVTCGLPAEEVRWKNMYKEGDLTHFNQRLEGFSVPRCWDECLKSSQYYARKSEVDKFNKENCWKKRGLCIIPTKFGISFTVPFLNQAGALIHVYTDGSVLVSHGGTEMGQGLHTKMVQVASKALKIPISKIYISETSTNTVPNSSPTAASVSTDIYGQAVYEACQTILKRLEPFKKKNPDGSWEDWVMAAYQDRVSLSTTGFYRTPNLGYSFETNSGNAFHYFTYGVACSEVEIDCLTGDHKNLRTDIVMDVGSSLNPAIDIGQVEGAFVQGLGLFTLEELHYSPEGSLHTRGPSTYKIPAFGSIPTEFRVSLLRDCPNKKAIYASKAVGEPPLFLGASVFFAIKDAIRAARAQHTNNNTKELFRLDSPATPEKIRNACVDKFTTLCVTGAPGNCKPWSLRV
Compound,IC50 (Xanthine oxidase (XO) [1]) [µM],Inhibition type (Xanthine oxidase (XO) [2]),also measured
"C[C@@H]1O[C@@H](Oc2c(-c3ccc(O)c(O)c3)oc3cc(O)cc(O)c3c2=O)[C@H](O)[C@H](O)[C@H]1O [C2, quercetin-3-rhamnoside]",12.1 ± 0.65,Competitive,–
"O=c1c(O)c(-c2ccc(O)c(O)c2)oc2cc(O)cc(O)c12 [C1, quercetin]",–,Mixed,–
"Oc1ncnc2[nH]ncc12 [Allopurinol, allopurinol, reference compound]",–,–,IC50 (XO; ref Wang et al. ([28])): 6.96 µM
"O=C(/C=C/c1ccc(O)c(O)c1)O[C@@H]1[C@H](O)C[C@@](O)(C(=O)O)C[C@H]1OC(=O)/C=C/c1ccc(O)c(O)c1 [C3, 4,5-O-dicaffeoylquinic acid]",26.7 ± 1.2,Mixed,–
"O=C(O)/C=C/c1ccc(O)c(O)c1 [C8, caffeic acid]",95.6 ± 3.28,–,"XO inhibition (XO; at 125 μM concentration, ref Song et al. ([29])): 5.74 ± 2.64%; IC50 (XO; ref Chan et al. ([31])): > 50 µM; IC50 (XO; ref Nguyen et al. ([33])): 85.3 µM; IC50 (XO; ref Wang et al. ([28])): 53.5 µM; IC50 (XO; ref Wang et al. ([30])): 65.6 ± 2.71 µM"

# The next lines start with results.
IC50 (Xanthine oxidase (XO) [1]) [µM],Inhibition type (Xanthine oxidase (XO) [2]),Compound,also measured
70.2 ± 2.25,Competitive,"O=C(/C=C/c1ccc(O)c(O)c1)O[C@H]1[C@H](O)C[C@](O)(C(=O)O)C[C@H]1O [C6, 4-O-caffeoylquinic acid]",–
44.6 ± 1.65,Competitive,"O=C(/C=C/c1ccc(O)c(O)c1)O[C@H]1[C@H](O)C[C@](O)(C(=O)O)C[C@H]1OC(=O)/C=C/c1ccc(O)c(O)c1 [C5, 3,4-O-di-caffeoylquinic acid]",–
28.9 ± 1.02,Competitive,"O=C(/C=C/c1ccc(O)c(O)c1)O[C@@H]1CC(O)(C(=O)O)C[C@@H](OC(=O)/C=C/c2ccc(O)c(O)c2)C1O (some centres unmarked) [C4, 3,5-O-dicaffeoylquinic acid]",–
80.9 ± 3.06,Competitive,"O=C(/C=C/c1ccc(O)c(O)c1)O[C@@H]1C[C@](O)(C(=O)O)C[C@@H](O)[C@H]1O [C7, 3-O-caffeoylquinic acid]",–

# Reference: publication PMC9531272, “Xanthine oxidase inhibitory study of eight structurally diverse phenolic compounds” (Frontiers in Nutrition, 2022)
